The NIST ThermoML archive (doi:10.1021/je0301040)
Numbers after ± are expanded uncertainties.

Assay: xn = mol fraction of the nth substance listed

In the case of FC(Cl)(Cl)Cl [trichlorofluoromethane] + FC(F)Cl, the mass density (424.96 K, 293.85 kPa, Fluid (supercritical or subcritical phases), Burnett expansion method, x1 = 0.832) is reported as 11.0367 ± 0.22 kg/m3, the mass density (424.96 K, 373.9 kPa, Fluid (supercritical or subcritical phases), Burnett expansion method, x1 = 0.832) is reported as 14.1459 ± 0.28 kg/m3 and the mass density (424.96 K, 418.92 kPa, Fluid (supercritical or subcritical phases), Burnett expansion method, x1 = 0.832) is reported as 15.9304 ± 0.32 kg/m3. It also gave a mass density (424.96 K, 445.3 kPa, Gas, isochoric method, x1 = 0.832) of 131.354 ± 0.093 kg/m3, a mass density (424.96 K, 567.37 kPa, Fluid (supercritical or subcritical phases), Burnett expansion method, x1 = 0.832) of 21.9341 ± 0.44 kg/m3 and a mass density (424.96 K, 662.1 kPa, Gas, isochoric method, x1 = 0.832) of 200.808 ± 0.14 kg/m3. The mass density (424.96 K, 663.7 kPa, Gas, isochoric method, x1 = 0.832) was 200.808 ± 0.14 kg/m3, the mass density (424.96 K, 715.19 kPa, Fluid (supercritical or subcritical phases), Burnett expansion method, x1 = 0.832) was 28.1109 ± 0.56 kg/m3 and the mass density (424.96 K, 797.38 kPa, Fluid (supercritical or subcritical phases), Burnett expansion method, x1 = 0.832) was 31.6606 ± 0.63 kg/m3. For the same compound, the mass density (424.96 K, 967.2 kPa, Gas, isochoric method, x1 = 0.832) was 303.998 ± 0.094 kg/m3, the mass density (424.96 K, 969 kPa, Gas, isochoric method, x1 = 0.832) was 303.998 ± 0.094 kg/m3 and the mass density (424.96 K, 1086 kPa, Fluid (supercritical or subcritical phases), Burnett expansion method, x1 = 0.832) was 44.6324 ± 0.9 kg/m3. It also gave a mass density (424.96 K, 1298.4 kPa, Gas, isochoric method, x1 = 0.832) of 426.053 ± 0.33 kg/m3, a mass density (424.96 K, 1299.4 kPa, Gas, isochoric method, x1 = 0.832) of 426.053 ± 0.33 kg/m3 and a mass density (424.96 K, 1617.2 kPa, Gas, isochoric method, x1 = 0.832) of 556.221 ± 0.17 kg/m3. It also gave a mass density (424.96 K, 1619.2 kPa, Gas, isochoric method, x1 = 0.832) of 556.221 ± 0.17 kg/m3, a mass density (424.96 K, 3854.3 kPa, Liquid, Pycnometric method, x1 = 0.8336) of 1012.94 ± 3.5 kg/m3 and a mass density (424.96 K, 4517.9 kPa, Liquid, Pycnometric method, x1 = 0.8336) of 1028.76 ± 3.4 kg/m3. The mass density (424.96 K, 7331.5 kPa, Liquid, Pycnometric method, x1 = 0.8336) was 1077.17 ± 2.6 kg/m3, the mass density (424.96 K, 20744 kPa, Liquid, Pycnometric method, x1 = 0.8336) was 1193.05 ± 1.9 kg/m3 and the mass density (424.96 K, 49662 kPa, Liquid, Pycnometric method, x1 = 0.8336) was 1310.9 ± 1.5 kg/m3. For the same compound, the mass density (424.96 K, 65344 kPa, Liquid, Pycnometric method, x1 = 0.8336) was 1352.8 ± 1.5 kg/m3, the mass density (424.97 K, 150.03 kPa, Fluid (supercritical or subcritical phases), Burnett expansion method, x1 = 0.832) was 5.5536 ± 0.11 kg/m3 and the mass density (424.97 K, 153.48 kPa, Fluid (supercritical or subcritical phases), Burnett expansion method, x1 = 0.832) was 5.6866 ± 0.11 kg/m3. The mass density (424.97 K, 215.05 kPa, Fluid (supercritical or subcritical phases), Burnett expansion method, x1 = 0.832) was 8.0157 ± 0.16 kg/m3, the mass density (424.97 K, 300.89 kPa, Fluid (supercritical or subcritical phases), Burnett expansion method, x1 = 0.832) was 11.3011 ± 0.23 kg/m3 and the mass density (424.97 K, 409.41 kPa, Fluid (supercritical or subcritical phases), Burnett expansion method, x1 = 0.832) was 15.5588 ± 0.31 kg/m3. The mass density (424.97 K, 444.8 kPa, Gas, isochoric method, x1 = 0.832) was 131.354 ± 0.093 kg/m3, the mass density (424.97 K, 518.76 kPa, Fluid (supercritical or subcritical phases), Burnett expansion method, x1 = 0.832) was 19.9414 ± 0.4 kg/m3 and the mass density (424.97 K, 580.12 kPa, Fluid (supercritical or subcritical phases), Burnett expansion method, x1 = 0.832) was 22.4579 ± 0.45 kg/m3. It also gave a mass density (424.97 K, 977.19 kPa, Fluid (supercritical or subcritical phases), Burnett expansion method, x1 = 0.832) of 39.6298 ± 0.8 kg/m3, a mass density (424.97 K, 1317.5 kPa, Fluid (supercritical or subcritical phases), Burnett expansion method, x1 = 0.832) of 55.8677 ± 1.1 kg/m3 and a mass density (424.97 K, 3592.7 kPa, Liquid, Pycnometric method, x1 = 0.8336) of 1005.84 ± 3.6 kg/m3. The mass density (424.97 K, 4190.2 kPa, Liquid, Pycnometric method, x1 = 0.8336) was 1021.29 ± 3.4 kg/m3, the mass density (424.97 K, 4853 kPa, Liquid, Pycnometric method, x1 = 0.8336) was 1035.91 ± 3 kg/m3 and the mass density (424.97 K, 5457.4 kPa, Liquid, Pycnometric method, x1 = 0.8336) was 1047.58 ± 3 kg/m3. For the same compound, the mass density (424.97 K, 6169.4 kPa, Liquid, Pycnometric method, x1 = 0.8336) was 1059.78 ± 3 kg/m3, the mass density (424.97 K, 14203 kPa, Liquid, Pycnometric method, x1 = 0.8336) was 1148.26 ± 2.2 kg/m3 and the mass density (424.97 K, 27900 kPa, Liquid, Pycnometric method, x1 = 0.8336) was 1230.65 ± 1.7 kg/m3. It also gave a mass density (424.97 K, 35700 kPa, Liquid, Pycnometric method, x1 = 0.8336) of 1263.74 ± 1.6 kg/m3, a mass density (424.97 K, 42738 kPa, Liquid, Pycnometric method, x1 = 0.8336) of 1289.02 ± 1.5 kg/m3 and a mass density (424.97 K, 56282 kPa, Liquid, Pycnometric method, x1 = 0.8336) of 1329.7 ± 1.5 kg/m3. For the same compound, the mass density (424.97 K, 61980 kPa, Liquid, Pycnometric method, x1 = 0.8336) was 1344.58 ± 1.4 kg/m3, the mass density (429.96 K, 2000.6 kPa, Gas, isochoric method, x1 = 0.832) was 715.595 ± 0.22 kg/m3 and the mass density (429.96 K, 2000.8 kPa, Gas, isochoric method, x1 = 0.832) was 715.595 ± 0.66 kg/m3. For the same compound, the mass density (429.96 K, 2002.4 kPa, Gas, isochoric method, x1 = 0.832) was 715.595 ± 0.22 kg/m3, the mass density (474.95 K, 4750 kPa, Fluid (supercritical or subcritical phases), Burnett expansion method, x1 = 0.832) was 271.514 ± 5.5 kg/m3 and the mass density (474.97 K, 1108 kPa, Fluid (supercritical or subcritical phases), Burnett expansion method, x1 = 0.832) was 39.0371 ± 0.78 kg/m3. The mass density (474.98 K, 322.47 kPa, Fluid (supercritical or subcritical phases), Burnett expansion method, x1 = 0.832) was 10.7116 ± 0.21 kg/m3, the mass density (474.98 K, 601.7 kPa, Fluid (supercritical or subcritical phases), Burnett expansion method, x1 = 0.832) was 20.4396 ± 0.41 kg/m3 and the mass density (474.98 K, 1965.5 kPa, Fluid (supercritical or subcritical phases), Burnett expansion method, x1 = 0.832) was 74.5021 ± 1.5 kg/m3. For the same compound, the mass density (474.98 K, 1995.2 kPa, Fluid (supercritical or subcritical phases), Burnett expansion method, x1 = 0.832) was 75.9597 ± 1.5 kg/m3, the mass density (474.98 K, 3255.8 kPa, Fluid (supercritical or subcritical phases), Burnett expansion method, x1 = 0.832) was 142.18 ± 2.9 kg/m3 and the mass density (474.98 K, 3296.6 kPa, Fluid (supercritical or subcritical phases), Burnett expansion method, x1 = 0.832) was 144.503 ± 2.9 kg/m3. The mass density (474.98 K, 4786.8 kPa, Fluid (supercritical or subcritical phases), Burnett expansion method, x1 = 0.832) was 274.877 ± 5.5 kg/m3, the mass density (474.98 K, 5920.1 kPa, Fluid (supercritical or subcritical phases), Burnett expansion method, x1 = 0.832) was 522.524 ± 11 kg/m3 and the mass density (474.98 K, 13635 kPa, Fluid (supercritical or subcritical phases), Burnett expansion method, x1 = 0.832) was 993.788 ± 20 kg/m3. The mass density (474.99 K, 590.67 kPa, Fluid (supercritical or subcritical phases), Burnett expansion method, x1 = 0.832) was 20.1833 ± 0.4 kg/m3, the mass density (474.99 K, 1081.5 kPa, Fluid (supercritical or subcritical phases), Burnett expansion method, x1 = 0.832) was 38.4124 ± 0.77 kg/m3 and the mass density (474.99 K, 1126.1 kPa, Fluid (supercritical or subcritical phases), Burnett expansion method, x1 = 0.832) was 39.9341 ± 0.8 kg/m3. It also gave a mass density (474.99 K, 1933.1 kPa, Fluid (supercritical or subcritical phases), Burnett expansion method, x1 = 0.832) of 73.0924 ± 1.5 kg/m3, a mass density (474.99 K, 3211.7 kPa, Fluid (supercritical or subcritical phases), Burnett expansion method, x1 = 0.832) of 139.089 ± 2.8 kg/m3 and a mass density (474.99 K, 4708.1 kPa, Fluid (supercritical or subcritical phases), Burnett expansion method, x1 = 0.832) of 264.786 ± 5.4 kg/m3. It also gave a mass density (475 K, 5875.1 kPa, Fluid (supercritical or subcritical phases), Burnett expansion method, x1 = 0.832) of 503.942 ± 11 kg/m3, a mass density (475 K, 5905.8 kPa, Fluid (supercritical or subcritical phases), Burnett expansion method, x1 = 0.832) of 518.038 ± 11 kg/m3 and a mass density (475 K, 12413 kPa, Fluid (supercritical or subcritical phases), Burnett expansion method, x1 = 0.832) of 958.868 ± 19 kg/m3. For the same compound, the mass density (475.01 K, 13484 kPa, Fluid (supercritical or subcritical phases), Burnett expansion method, x1 = 0.832) was 988.822 ± 20 kg/m3.
